Patent US20040034102A1, “Oral pediatric trimethobenzamide formulations and methods” (King Pharmaceuticals, Inc., priority 2002, published 2004)
Read-outs that look alike come from different tables or passages of the source.

Key:
[1] = Safety assessment in the crossover study (adverse events, laboratory tests); assay type: in vivo, human; for DIARRHEA (treatment emergent AE): test concentration or dose not given here; for ERYTHEMA, PALMAR (treatment emergent AE): test concentration or dose not given here
Text: Seventy-four healthy, non-smoking, male & female subjects, 18-65 years old were enrolled in this study. A total of 68 subjects completed all the requirements of the protocol. There were no enrollment violations. However, nine of the 74 subjects began the study during the third period of the initial group of subjects. All 74 subjects who received at least one dose of study medication were included in the safety analysis.
This study was a single center, randomized, open-label, 4-way crossover study in healthy subjects. Dosing was administered in the fasted state. Seventy-four (74) subjects were randomized into the study. All seventy-four subjects received one or more doses of study medication and are therefore included in the safety assessment. On Treatment Day 1 of the first treatment period, each subject was randomized to receive one of four possible study treatment sequences. The treatment groups consisted of the four treatments administered sequentially as DCAB, ADBC, BACD or CBDA. These treatments are shown below.
A signed informed consent was obtained from each subject. For screening purposes, the following procedures were required of each subject and were performed by the clinical site within 30 days prior to the study: a complete physical examination including a medical history, vital signs, clinical laboratory safety tests on blood and urine, medications taken prior to and during the study, and a serum pregnancy test for female subjects.
During the treatments, temperature, blood pressure, heart rate and respiratory rate were monitored as a safety measure. A physical examination and clinical laboratory tests were repeated at the completion of the study. Subjects were observed and questioned throughout the study for the occurrence of any adverse events.

[2] = cited from earlier work
[3] = FDA notice; cited from earlier work
[4] = 74 subjects, all 4 treatment periods

## N-[2-(dimethylamino)-ethoxy]-3,4,5trimethoxybenzamide hydrochloride [trimethobenzamide hydrochloride]
[1]; 5 percent prior to treatment
  subjects with decreased red blood cell count at the end of treatment: 11%
[1]; 8 percent prior to treatment
  subjects with low hematocrit at the end of treatment: 34%
[1]; [4]
  adverse events (AEs) experienced, total: 28
  treatment emergent AEs: 27
[1]; all mild to moderate
  AEs assessed as related to study treatment: 21
[1]; end of treatment vs prior
  hematocrit mean change: 2.3%
  hemoglobin mean change: 0.6 g/dL
  red blood cell count mean change: 2e+11 L⁻¹
[1]; in vivo
  overall safety and tolerability: safe and well tolerated
  serious AEs: no serious AEs
[1]; no clinical significance
  subjects with normal hemoglobin prior to treatment who had low hemoglobin at the end of treatment: 13%
[1]; number of events
  dizziness: 3
  neurologic complaints: 15
  paresthesias: 3
[1]; number of events, in a total of 7 subjects
  headaches: 8
[1]; of 6 withdrawn
  subjects prematurely withdrawn due to adverse events: 4
[1]; of the 72 samples drawn at the end of the study, due to hemolyzed specimens
  samples with hyperkalemia: 55
[1]; sequence A D B C (N = 20)
  ABDOMINAL PAIN (treatment emergent AE): 5.0%
  CONJUNCTIVITIS (treatment emergent AE): 5.0%
  DIARRHEA (treatment emergent AE): 0.0%
  DIZZINESS (treatment emergent AE): 15.0%
  EDEMA, PALMAR (treatment emergent AE): 5.0%
  ERYTHEMA, EXTERNAL NOSE (treatment emergent AE): 0.0%
  ERYTHEMA, PALMAR (treatment emergent AE): 5.0%
  HEADACHE (treatment emergent AE): 5.0%
  HYPOTONIA (treatment emergent AE): 0.0%
  INJECTION SITE REACTION (treatment emergent AE): 0.0%
  LEG CRAMPS (treatment emergent AE): 0.0%
  NAUSEA (treatment emergent AE): 5.0%
  NAUSEA AND VOMITING (treatment emergent AE): 5.0%
  Number of Subject With At Least one AE: 25.0%
  Number of Subject With No AE: 75.0%
  PARESTHESIA (treatment emergent AE): 0.0%
  PHARYNGITIS (treatment emergent AE): 0.0%
  RASH (treatment emergent AE): 0.0%
  […] (treatment emergent AE): 0.0%
[1]; sequence B A C D (N = 18)
  ABDOMINAL PAIN (treatment emergent AE): 0.0%
  CONJUNCTIVITIS (treatment emergent AE): 0.0%
  DIARRHEA (treatment emergent AE): 0.0%
  DIZZINESS (treatment emergent AE): 0.0%
  EDEMA, PALMAR (treatment emergent AE): 0.0%
  ERYTHEMA, EXTERNAL NOSE (treatment emergent AE): 0.0%
  ERYTHEMA, PALMAR (treatment emergent AE): 0.0%
  HEADACHE (treatment emergent AE): 0.0%
  HYPOTONIA (treatment emergent AE): 0.0%
  INJECTION SITE REACTION (treatment emergent AE): 5.6%
  LEG CRAMPS (treatment emergent AE): 0.0%
  NAUSEA (treatment emergent AE): 0.0%
  NAUSEA AND VOMITING (treatment emergent AE): 0.0%
  Number of Subject With At Least one AE: 22.2%
  Number of Subject With No AE: 77.8%
  PARESTHESIA (treatment emergent AE): 11.1%
  PHARYNGITIS (treatment emergent AE): 0.0%
  RASH (treatment emergent AE): 5.6%
  […] (treatment emergent AE): 5.6%
[1]; sequence C B D A (N = 18)
  ABDOMINAL PAIN (treatment emergent AE): 0.0%
  CONJUNCTIVITIS (treatment emergent AE): 0.0%
  DIARRHEA (treatment emergent AE): 5.6%
  DIZZINESS (treatment emergent AE): 0.0%
  EDEMA, PALMAR (treatment emergent AE): 0.0%
  ERYTHEMA, EXTERNAL NOSE (treatment emergent AE): 5.6%
  ERYTHEMA, PALMAR (treatment emergent AE): 0.0%
  HEADACHE (treatment emergent AE): 16.7%
  HYPOTONIA (treatment emergent AE): 5.6%
  INJECTION SITE REACTION (treatment emergent AE): 0.0%
  LEG CRAMPS (treatment emergent AE): 0.0%
  NAUSEA (treatment emergent AE): 0.0%
  NAUSEA AND VOMITING (treatment emergent AE): 0.0%
  Number of Subject With At Least one AE: 22.2%
  Number of Subject With No AE: 77.8%
  PARESTHESIA (treatment emergent AE): 0.0%
  PHARYNGITIS (treatment emergent AE): 0.0%
  RASH (treatment emergent AE): 0.0%
  […] (treatment emergent AE): 0.0%
[1]; sequence D C A B (N = 18)
  ABDOMINAL PAIN (treatment emergent AE): 0.0%
  CONJUNCTIVITIS (treatment emergent AE): 0.0%
  DIARRHEA (treatment emergent AE): 0.0%
  DIZZINESS (treatment emergent AE): 0.0%
  EDEMA, PALMAR (treatment emergent AE): 0.0%
  ERYTHEMA, EXTERNAL NOSE (treatment emergent AE): 0.0%
  ERYTHEMA, PALMAR (treatment emergent AE): 0.0%
  HEADACHE (treatment emergent AE): 16.7%
  HYPOTONIA (treatment emergent AE): 0.0%
  INJECTION SITE REACTION (treatment emergent AE): 0.0%
  LEG CRAMPS (treatment emergent AE): 5.6%
  NAUSEA (treatment emergent AE): 0.0%
  NAUSEA AND VOMITING (treatment emergent AE): 0.0%
  Number of Subject With At Least one AE: 27.8%
  Number of Subject With No AE: 72.2%
  PARESTHESIA (treatment emergent AE): 5.6%
  PHARYNGITIS (treatment emergent AE): 0.0%
  RASH (treatment emergent AE): 0.0%
  […] (treatment emergent AE): 0.0%
[1]; severe pharyngitis, judged unrelated to study treatment
  severe AEs: 1
[2]; IM
  DURATION: 2 to 3 h
  ONSET: 15 to 35 min
[2]; PO
  DURATION: 3 to 4 h
  ONSET: 10 to 40 min
[2]; Rect
  DURATION: 3 to 4 h
  ONSET: 10 to 40 min
[3]
  plasma levels of an oral dose of 400 milligrams vs a 200-milligram intramuscular dose: APP[…]
  systemic bioavailability of orally administered drug, of the bioavailability of intramuscularly administered drug: about 60%
